The source of these data is patent US20240245603A1, “HIGH LOADING ORAL FILM FORMULATION” (INTELGENX CORP., priority 2021, published 2024).

A short description of data set [1]: Permeability of Maropitant through artificial membranes, Franz cell model. The class given is in vitro ADME. The protocol: Numerous experiments were performed to improve the permeability of Maropitant through artificial membranes using the Franz cell model. Initially, solutions and suspensions of Maropitant and different acids at different ratios were prepared.
Based on the results obtained with the solution/suspension of Maropitant at different pH, Maropitant oral films with and without citric acid were prepared.

Data set [2] can be described thus: Solubility studies of Maropitant in solvents and solubility enhancers (visual inspection). The class given is physicochemical. The procedure: The following solubility studies were performed with Maropitant drug substance in various solvents and solubility enhancers. […] During solubility studies, the API was solubilized stepwise, in a series of permitted solvent (or a combination of solvent) with and without solubility enhancer. The solvent system was based on methanol, ethanol, isopropyl alcohol (IPA), acetone, methyl ethyl ketone (MEK), and water. Solubility enhancers included Maiscine CC (MGO) (HLB 1), medium chain triglyceride (MCT) oil (HLB 1), Labrafil 1944 cs (HLB 9), Labrafil 2125CS (HLB 9), Glycerine, Tween 20 (HLB 16,7), PEG 300, Propylene glycol, SLS (HLB 40). The resulting mixture was visually inspected to evaluate solubilization. The main equipment used were glass bottles, magnetic stir bars, stirrer plate, and sonicator.

For data set [3] the following is noted: cited from earlier work.

As for `COc1ccc(C(C)(C)C)cc1CN[C@H]1C2CCN(CC2)[C@H]1C(c1ccccc1)c1ccccc1` [Maropitant], the “permeation of Maropitant solutions/suspensions at different pH” value in data set [1] (Maropitant/citric acid pH 4.24, 5.22, 6.22 and phosphate citrate buffer pH 8.0, FIG. 9) is on record as “acidic environment promotes Maropitant permeation”. Moreover, the “Maropitant permeability of films with versus without citric acid” value in data set [1] (oral films with and without citric acid) is reported as “improved”. Moreover, the Solubility result in data set [2] (Test 1, media Methanol) was “Up to 30 mg/1 g of solvent”; in data set [2] (Test 2, media Ethanol), “Up to 15 mg/1 g of solvent”; in data set [2] (Test 3, media Isopropanol) it was “insoluble”; in data set [2] (Test 4, media Acetone), “Up to 120 mg/1 g of solvent”; in data set [2] (Test 5, media MEK), “Up to 150 mg/1 g of solvent”; in data set [2] (Test 6, MEK:Maiscine CC 40:2), “Up to 180 mg/1 g of solvent”. The Solubility entry in data set [2] (Test 7, MEK:Maiscine CC 40:3) is given as “Up to 220 mg/1 g of solvent”; in data set [2] (Test 8, MEK:MCT 40:2), “Up to 220 mg/1 g of solvent”; in data set [2] (Test 9, MEK:MCT 40:3), “Up to 240 mg/1 g of solvent”; in data set [2] (Test 10, MEK:PEG 300 40:2), “Up to 180 mg/1 g of solvent”; in data set [2] (Test 11, MEK:MCT:PEG 300 40:3:2) it was “Up to 240 mg/1 g of solvent”; in data set [2] (Test 12, MEK:Labrafil 1944CS 40:2), “Up to 220 mg/1 g of solvent”. For the same compound, the Solubility result is “Up to 220 mg/1 g of solvent” in data set [2] (Test 13, MEK:Labrafil 1944CS:MCT 40:3:2); “Up to 220 mg/1 g of solvent” in data set [2] (Test 14, MEK:Labrafil 1944CS:PEG 300 40:3:2); “Up to 135 mg/1 g of solvent” in data set [2] (Test 15, MEK:Glycerine 40:2); “Up to 180 mg/1 g of solvent” in data set [2] (Test 16, MEK:Tween 20 40:2); “Up to 155 mg/1 g of solvent” in data set [2] (Test 17, MEK:Methanol 40:10); “Up to 235 mg/1 g of solvent” in data set [2] (Test 18, MEK:Methanol:MCT 40:10:3). The Solubility entry in data set [2] (Test 19, MEK:Water 40:4.5) is “insoluble”; in data set [2] (Test 20, MEK:Methanol:Labrafil 2125CCS:Tween 20 40:10:4:4) it was “Up to 317 mg/1 g of solvent”.

For the compound `CN1CC(=O)N2[C@H](c3ccc4c(c3)OCO4)c3[nH]c4ccccc4c3C[C@@H]2C1=O` [Tadalafil], the solubility in water entry in data set [3] is on record as “practically insoluble”.
